Test results taken from patent publication US10407467B2, “Polymyxin derivatives and their use in combination therapy together with different antibiotics” (priority 2013, dated 2019).
Where a name gives a salt, the structure may show the parent alone. Read-outs that look alike come from different tables or passages of the source. One block for each compound: values may come before it. Numbered stars: 1 amine (or outer) side, 2 acyl side, 3 side chain; on linkers, the order of the positions; unused ones are H or OH. Bridge positions count the residues as written; N and C are the ends. Square brackets hold non-standard residues; d marks the D form. Peptide text beside a SMILES is read from it. * marks the point of attachment. ξ: configuration not given here. ξHexahydromandeloyl = O=C(C(O)C1CCCCC1)*; ξβ3hGly(cHex) = NC(CC(=O)*)C1CCCCC1; X12 = CC(C)C[C@H](N)[C@H](O)C(=O)*; X22 = O=C(C[C@@H]1Cc2ccccc2CN1)*; Thr(3ξ) = CC(O)[C@H](N)C(=O)O; NH(2-ClPh) = Clc1ccccc1N*; Dab = NCC[C@H](N)C(=O)O; X3 = O=C([C@H]1CCCNC1)*; Dap = NC[C@H](N)C(=O)O; CO = O=C([*:1])[*:2]; Ahp = NCCCCCCC(=O)O

Assays:
P. aeruginosa ATCC 27853 = settings: ATCC 27853, in vivo
HK-2 cell line = test: In vitro renal cell toxicity assay (resazurin reduction); format: cell-based, human
Acinetobacter baumannii = test: MIC, compound in combination with a second agent (broth microdilution); format: cell-based; settings: 1:1 (wt:wt) combination with Rifampicin, MIC = total drug concentration; for MIC A. baumannii ATCC BAA-747: strain ATCC BAA-747; for MIC A. baumannii CCUG57249: strain CCUG57249; for MIC A. baumannii NCTC 13423: strain NCTC 13423
Outline: (§1)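 MIC = combined concentration of test compound plus partner agent, mixed at equal mass (1:1 w/w, salt form as used). Up to four strains per species; colonies adjusted to 0.5 McFarland. Run in duplicate; >2-fold disagreement invalidates the run.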

Pseudomonas aeruginosa [1] = test: as above; format: cell-based; settings: 1:1 (wt:wt) combination with Rifampicin, MIC = total drug concentration; for MIC P. aeruginosa ATCC 27853: strain ATCC 27853; for MIC P. aeruginosa ATCC-47: strain ATCC-47; for MIC P. aeruginosa CCUG 59626: strain CCUG 59626
Outline: as §1

Escherichia coli [2] = test: as above; format: cell-based; settings: 1:1 (wt:wt) combination with Rifampicin, MIC = total drug concentration; for MIC E. coli ATCC25922: strain ATCC25922; for MIC E. coli NCTC9001: strain NCTC9001
Outline: as §1

Klebsiella pneumoniae [3] = test: as above; format: cell-based; settings: 1:1 (wt:wt) combination with Rifampicin, MIC = total drug concentration; for MIC K. pneumoniae ATCC 4352: strain ATCC 4352; for MIC K. pneumoniae ATCC-BAA-2146: strain ATCC-BAA-2146; for MIC K. pneumoniae CCUG-59348: strain CCUG-59348
Outline: as §1

Pseudomonas aeruginosa [4] = test: MIC, sole activity (no second agent); format: cell-based; settings: in the absence of Rifampicin; strain ATCC27853
Outline: (§2)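 First, isolated colonies grown 18-24 hours on Mueller-Hinton agar were suspended to 0.5 McFarland; next, up to four strains per pathogen were tested in duplicate in cation-adjusted MHB; finally, the lower concordant value or modal repeat value was reported against Polymyxin B.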

Escherichia coli [5] = test: MIC, sole activity (no second agent); format: cell-based; settings: in the absence of Rifampicin; strain ATCC25922
Outline: as §2

Klebsiella pneumoniae [6] = test: MIC, sole activity (no second agent); format: cell-based; settings: in the absence of Rifampicin; strain ATCC 4352
Outline: as §2

Compound: CCCCCC(N)CC(=O)N[C@H](C(=O)N[C@@H](CCN)C(=O)N[C@H]1CCNC(=O)[C@H](C(C)O)NC(=O)[C@H](CCN)NC(=O)[C@H](CCN)NC(=O)[C@H](CC(C)C)NC(=O)[C@@H](Cc2ccccc2)NC(=O)[C@H](CCN)NC1=O)C(C)O (single isomer, unassigned; isomer 2) [Example A33, 3-(RS)-3-amino octanoyl polymyxin B nonapeptide. Isomer 2]
Log reduction from vehicle (CFU/g) (P. aeruginosa ATCC 27853; 3.4 mg/kg, 24 h): 3.54 log CFU/g
HK-2 IC50 rel to PMB (HK-2 cell line): 9.7
HK-2 relative to PMB (HK-2 cell line): 9.7
HK-2 toxicity (IC50) compared with PMB (HK-2 cell line): significantly increased recorded IC50 values

MIC A. baumannii ATCC BAA-747 (Acinetobacter baumannii): ≤0.06 micrograms/mL
MIC A. baumannii CCUG57249 (Acinetobacter baumannii): 0.125 micrograms/mL
MIC A. baumannii NCTC 13423 (Acinetobacter baumannii): ≤0.06 micrograms/mL
MIC A. baumannii NCTC 13424 (Acinetobacter baumannii; strain NCTC 13424): 0.125 micrograms/mL
MIC P. aeruginosa ATCC 27853 (Pseudomonas aeruginosa [1]): 0.25 micrograms/mL
MIC P. aeruginosa ATCC-47 (Pseudomonas aeruginosa [1]): 0.25 micrograms/mL
MIC P. aeruginosa CCUG 59626 (Pseudomonas aeruginosa [1]): 0.125 micrograms/mL
MIC E. coli ATCC25922 (Escherichia coli [2]): 0.125 micrograms/mL
MIC E. coli NCTC9001 (Escherichia coli [2]): 0.5 micrograms/mL
MIC K. pneumoniae ATCC 4352 (Klebsiella pneumoniae [3]): 0.125 micrograms/mL
MIC K. pneumoniae ATCC-BAA-2146 (Klebsiella pneumoniae [3]): 0.5 micrograms/mL
MIC K. pneumoniae CCUG-59348 (Klebsiella pneumoniae [3]): 4 micrograms/mL
MIC K. pneumoniae NCTC 13438 (Klebsiella pneumoniae [3]; strain NCTC 13438): 1 micrograms/mL
MIC P. aeruginosa ATCC 27853 (Pseudomonas aeruginosa [4]): 0.25 micrograms/mL
MIC E. coli ATCC25922 (Escherichia coli [5]): 1 micrograms/mL
MIC K. pneumoniae ATCC 4352 (Klebsiella pneumoniae [6]): 2 micrograms/mL
Compound: CC(C)C[C@@H]1NC(=O)[C@@H](Cc2ccccc2)NC(=O)[C@H](CCN)NC(=O)[C@@H](NC(=O)[C@H](CCN)NC(=O)[C@@H](NC(=O)CCCCCCN)C(C)O)CCNC(=O)[C@H](C(C)O)NC(=O)[C@H](CCN)NC(=O)[C@H](CCN)NC1=O (stereo partly drawn) [Example 13, 7-Aminoheptanoyl polymyxin B nonapeptide] (H-[Ahp][Thr(3ξ)][Dab][Dab][Dab][dF]L[Dab][Dab][Thr(3ξ)]; lactam 4-C)
HK-2 relative to PMB (HK-2 cell line): 14
HK-2 toxicity (IC50) compared with PMB (HK-2 cell line): significantly increased recorded IC50 values

Compound: CC(C)C[C@@H]1NC(=O)[C@@H](Cc2ccccc2)NC(=O)[C@H](CCN)NC(=O)[C@@H](NC(=O)[C@H](CCN)NC(=O)[C@@H](NC(=O)[C@H](CCN)NC(=O)C(O)C2CCCCC2)C(C)O)CCNC(=O)[C@H](C(C)O)NC(=O)[C@H](CCN)NC(=O)[C@H](CCN)NC1=O (stereo partly drawn) [Example A3, 2-(RS)-(2-Hydroxy-2-cyclohexyl)ethanoyl polymyxin B decapeptide] (ξHexahydromandeloyl-[Dab][Thr(3ξ)][Dab][Dab][Dab][dF]L[Dab][Dab][Thr(3ξ)]; lactam 4-C)
Log reduction from vehicle (CFU/g) (P. aeruginosa ATCC 27853; iv, 2 mg/kg, 9 h): 0.12 log CFU/g
Log reduction from vehicle (CFU/g) (P. aeruginosa ATCC 27853; iv, 4 mg/kg, 9 h): 3.34 log CFU/g
HK-2 IC50 rel to PMB (HK-2 cell line): 4

Compound: CC(C)C[C@@H]1NC(=O)[C@@H](Cc2ccccc2)NC(=O)[C@H](CCN)NC(=O)[C@@H](NC(=O)[C@H](CCN)NC(=O)[C@@H](NC(=O)[C@H](CN)NC(=O)CC(N)C2CCCCC2)C(C)O)CCNC(=O)[C@H](C(C)O)NC(=O)[C@H](CCN)NC(=O)[C@H](CCN)NC1=O (stereo partly drawn) [Example A6, [3(R,S)-3-Amino-3-cyclohexanepropanoyl]-L-Dap-polymyxin B nonapeptide] ({ξβ3hGly(cHex)}-[Dap][Thr(3ξ)][Dab][Dab][Dab][dF]L[Dab][Dab][Thr(3ξ)]; lactam 4-C)
HK-2 IC50 rel to PMB (HK-2 cell line): 3

Compound: CC(C)C[C@@H]1NC(=O)[C@@H](Cc2ccccc2)NC(=O)[C@H](CCN)NC(=O)[C@@H](NC(=O)[C@H](CN)NC(=O)[C@@H](NC(=O)[C@H](CCN)NC(=O)[C@H]2CCCNC2)C(C)O)CCNC(=O)[C@H](C(C)O)NC(=O)[C@H](CCN)NC(=O)[C@H](CCN)NC1=O (stereo partly drawn) [Example A13, [(3S)-piperidine-3-carbonyl]-L-Dab-L-Thr-L-Dap polymyxin B heptapeptide] (X3-[Dab][Thr(3ξ)][Dap][Dab][Dab][dF]L[Dab][Dab][Thr(3ξ)]; lactam 4-C)
HK-2 IC50 rel to PMB (HK-2 cell line): 10

Compound: CC(C)C[C@@H]1NC(=O)[C@@H](Cc2ccccc2)NC(=O)[C@H](CCN)NC(=O)[C@@H](NC(=O)[C@H](CCN)NC(=O)[C@@H](NC(=O)C[C@@H]2Cc3ccccc3CN2)C(C)O)CCNC(=O)[C@H](C(C)O)NC(=O)[C@H](CCN)NC(=O)[C@H](CCN)NC1=O (stereo partly drawn) [Example A14, (S)-2-((1,2,3,4)-tetrahydroisoquinolin-3-yl) ethanoyl polymyxin B nonapeptide] (X22-[Thr(3ξ)][Dab][Dab][Dab][dF]L[Dab][Dab][Thr(3ξ)]; lactam 3-C)
HK-2 IC50 rel to PMB (HK-2 cell line): 5.3

Compound: CC(C)C[C@@H]1NC(=O)[C@@H](Cc2ccccc2)NC(=O)[C@H](CCN)NC(=O)[C@@H](NC(=O)[C@H](CN)NC(=O)[C@@H](NC(=O)[C@H](CCN)NC(=O)[C@@H](O)[C@@H](N)CC(C)C)C(C)O)CCNC(=O)[C@H](C(C)O)NC(=O)[C@H](CCN)NC(=O)[C@H](CCN)NC1=O (stereo partly drawn) [Example A17, [(2S,3S)-3-Amino-2-hydroxy-5-methylhexanoyl]-L-Dab-L-Thr-L-Dap polymyxin B heptapeptide] (X12-[Dab][Thr(3ξ)][Dap][Dab][Dab][dF]L[Dab][Dab][Thr(3ξ)]; lactam 4-C)
HK-2 IC50 rel to PMB (HK-2 cell line): 5.5

Compound: CC(C)C[C@@H]1NC(=O)[C@@H](Cc2ccccc2)NC(=O)[C@H](CCN)NC(=O)[C@@H](NC(=O)[C@H](CCN)NC(=O)[C@@H](NC(=O)[C@H](CCN)NC(=O)[C@H]2CCCNC2)C(C)O)CCNC(=O)[C@H](C(C)O)NC(=O)[C@H](CCN)NC(=O)[C@H](CCN)NC1=O (stereo partly drawn) [Example A22, (S)-Piperidine-3-carbonyl polymyxin B decapeptide] (X3-[Dab][Thr(3ξ)][Dab][Dab][Dab][dF]L[Dab][Dab][Thr(3ξ)]; lactam 4-C)
HK-2 IC50 rel to PMB (HK-2 cell line): 7.4

Compound: CC(C)C[C@@H]1NC(=O)[C@@H](Cc2ccccc2)NC(=O)[C@H](CCN)NC(=O)[C@@H](NC(=O)[C@H](CCN)NC(=O)[C@@H](NC(=O)[C@H](CCN)NC(=O)Nc2ccccc2Cl)C(C)O)CCNC(=O)[C@H](C(C)O)NC(=O)[C@H](CCN)NC(=O)[C@H](CCN)NC1=O (stereo partly drawn) [Example C2, CB-182, 804 sulphate salt, reference compound] ({NH(2-ClPh)-CO}-[Dab][Thr(3ξ)][Dab][Dab][Dab][dF]L[Dab][Dab][Thr(3ξ)]; lactam 4-C)
IC50 HK-2 cells (HK-2 cell line; HK-2 cells, 24 h, resazurin reduction, mean values of up to 6 independent studies): 22 µg/mL
MIC A. baumannii ATCC BAA-747 (Acinetobacter baumannii): 0.25 micrograms/mL
MIC A. baumannii CCUG57249 (Acinetobacter baumannii): 0.5 micrograms/mL
MIC A. baumannii NCTC 13423 (Acinetobacter baumannii): 0.25 micrograms/mL
MIC P. aeruginosa ATCC 27853 (Pseudomonas aeruginosa [1]): 0.5 micrograms/mL
MIC P. aeruginosa ATCC CRM-9027 (Pseudomonas aeruginosa [1]; strain ATCC CRM-9027): 0.5 micrograms/mL
MIC P. aeruginosa ATCC-47 (Pseudomonas aeruginosa [1]): 0.25 micrograms/mL
MIC P. aeruginosa CCUG 59626 (Pseudomonas aeruginosa [1]): 0.125 micrograms/mL
MIC E. coli ATCC25922 (Escherichia coli [2]): 0.125 micrograms/mL
MIC E. coli NCTC9001 (Escherichia coli [2]): 0.25 micrograms/mL
MIC K. pneumoniae ATCC 4352 (Klebsiella pneumoniae [3]): 0.25 micrograms/mL
MIC K. pneumoniae ATCC-BAA-2146 (Klebsiella pneumoniae [3]): 0.5 micrograms/mL
MIC K. pneumoniae CCUG-59348 (Klebsiella pneumoniae [3]): 2 micrograms/mL

Compound: Octanoyl polymyxin B nonapeptide, sulfate salt [Example C6, reference compound]
HK-2 relative to PMB (HK-2 cell line): 3.3
HK-2 toxicity (IC50) compared with PMB (HK-2 cell line): reduced toxicity against HK-2 compared with PMB
